Measurements taken from article PMC4669708 (Cell Death & Disease, 2015).

Key:
Test in all cases: c-ponatinib pulldown LC-MS/MS
Assay type in all cases: binding
CSK = CSK (Homo sapiens, UniProt P41240)
In short: (§1)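 Read-out: interaction P-value combining Mascot scores, Phenyx scores and spectral counts (Fisher's method), plus fold reduction of median spectral counts on free-compound competition. Proteins were enriched from 10 mg cell lysate on c-ponatinib beads, then trypsin-digested for LC-MS/MS.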

GAK = molecular target: T1, GAK (Homo sapiens, UniProt O14976)
T1 sequence (O14976 1-1311): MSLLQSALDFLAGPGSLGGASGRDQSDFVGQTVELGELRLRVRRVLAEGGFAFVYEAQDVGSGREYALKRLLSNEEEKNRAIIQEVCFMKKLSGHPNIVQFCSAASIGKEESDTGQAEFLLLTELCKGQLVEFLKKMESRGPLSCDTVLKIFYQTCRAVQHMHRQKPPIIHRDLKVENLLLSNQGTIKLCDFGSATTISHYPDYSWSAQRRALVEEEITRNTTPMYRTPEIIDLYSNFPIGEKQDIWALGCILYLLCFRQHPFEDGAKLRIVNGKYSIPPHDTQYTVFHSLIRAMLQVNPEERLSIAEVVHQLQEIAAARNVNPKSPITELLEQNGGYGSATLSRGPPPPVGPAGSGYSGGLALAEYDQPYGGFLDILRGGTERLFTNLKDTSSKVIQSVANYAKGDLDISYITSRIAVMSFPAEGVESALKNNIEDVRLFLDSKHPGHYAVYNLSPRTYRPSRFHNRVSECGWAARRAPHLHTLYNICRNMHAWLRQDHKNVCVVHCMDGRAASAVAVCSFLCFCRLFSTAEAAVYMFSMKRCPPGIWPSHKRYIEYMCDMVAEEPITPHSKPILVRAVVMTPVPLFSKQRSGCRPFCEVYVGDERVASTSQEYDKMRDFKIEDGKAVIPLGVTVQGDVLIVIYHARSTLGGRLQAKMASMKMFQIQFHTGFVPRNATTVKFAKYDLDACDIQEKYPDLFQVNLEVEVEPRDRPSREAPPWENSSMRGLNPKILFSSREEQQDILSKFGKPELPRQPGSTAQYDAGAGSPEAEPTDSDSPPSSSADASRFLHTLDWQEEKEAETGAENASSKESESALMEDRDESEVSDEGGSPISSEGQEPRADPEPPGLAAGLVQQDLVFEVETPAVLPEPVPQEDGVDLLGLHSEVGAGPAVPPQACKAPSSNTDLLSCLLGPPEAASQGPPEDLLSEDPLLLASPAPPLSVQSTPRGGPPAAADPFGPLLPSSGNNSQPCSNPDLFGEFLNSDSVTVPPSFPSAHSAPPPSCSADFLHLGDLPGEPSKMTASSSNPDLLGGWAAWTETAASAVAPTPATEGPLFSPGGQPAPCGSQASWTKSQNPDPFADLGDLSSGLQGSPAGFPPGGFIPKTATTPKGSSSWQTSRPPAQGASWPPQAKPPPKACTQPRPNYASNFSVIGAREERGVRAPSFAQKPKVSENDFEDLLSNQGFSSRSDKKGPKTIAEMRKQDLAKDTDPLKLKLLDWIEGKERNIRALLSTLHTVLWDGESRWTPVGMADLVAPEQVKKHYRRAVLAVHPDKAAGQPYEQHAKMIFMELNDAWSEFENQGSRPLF
In short: as §1

HSPA4 = HSPA4 (Homo sapiens, UniProt P34932)
Chain of HSPA4 (P34932 whole entry): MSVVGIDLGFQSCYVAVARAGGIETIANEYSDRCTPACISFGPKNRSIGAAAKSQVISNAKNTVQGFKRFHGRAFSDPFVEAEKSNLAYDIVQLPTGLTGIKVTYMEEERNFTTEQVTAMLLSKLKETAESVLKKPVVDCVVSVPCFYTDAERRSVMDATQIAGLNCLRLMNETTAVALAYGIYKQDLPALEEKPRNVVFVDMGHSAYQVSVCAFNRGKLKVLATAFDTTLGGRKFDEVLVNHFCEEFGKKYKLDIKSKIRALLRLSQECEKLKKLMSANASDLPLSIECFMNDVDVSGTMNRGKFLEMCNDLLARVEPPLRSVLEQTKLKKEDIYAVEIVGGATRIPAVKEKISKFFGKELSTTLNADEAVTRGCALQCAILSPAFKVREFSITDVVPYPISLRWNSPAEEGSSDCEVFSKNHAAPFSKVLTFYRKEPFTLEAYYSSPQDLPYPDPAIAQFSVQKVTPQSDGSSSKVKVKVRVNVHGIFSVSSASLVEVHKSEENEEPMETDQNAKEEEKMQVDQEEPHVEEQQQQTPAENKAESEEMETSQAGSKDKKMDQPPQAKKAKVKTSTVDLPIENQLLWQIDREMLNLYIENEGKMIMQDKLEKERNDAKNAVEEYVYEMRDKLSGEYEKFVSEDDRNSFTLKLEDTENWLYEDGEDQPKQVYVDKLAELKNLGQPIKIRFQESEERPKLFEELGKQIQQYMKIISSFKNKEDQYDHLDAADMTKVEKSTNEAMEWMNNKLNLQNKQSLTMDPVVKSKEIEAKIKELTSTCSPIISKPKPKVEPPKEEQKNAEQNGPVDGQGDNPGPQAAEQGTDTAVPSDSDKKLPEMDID
In short: as §1

JAK2 = JAK2 (Homo sapiens, UniProt O60674)
Chain of JAK2 (O60674 whole entry): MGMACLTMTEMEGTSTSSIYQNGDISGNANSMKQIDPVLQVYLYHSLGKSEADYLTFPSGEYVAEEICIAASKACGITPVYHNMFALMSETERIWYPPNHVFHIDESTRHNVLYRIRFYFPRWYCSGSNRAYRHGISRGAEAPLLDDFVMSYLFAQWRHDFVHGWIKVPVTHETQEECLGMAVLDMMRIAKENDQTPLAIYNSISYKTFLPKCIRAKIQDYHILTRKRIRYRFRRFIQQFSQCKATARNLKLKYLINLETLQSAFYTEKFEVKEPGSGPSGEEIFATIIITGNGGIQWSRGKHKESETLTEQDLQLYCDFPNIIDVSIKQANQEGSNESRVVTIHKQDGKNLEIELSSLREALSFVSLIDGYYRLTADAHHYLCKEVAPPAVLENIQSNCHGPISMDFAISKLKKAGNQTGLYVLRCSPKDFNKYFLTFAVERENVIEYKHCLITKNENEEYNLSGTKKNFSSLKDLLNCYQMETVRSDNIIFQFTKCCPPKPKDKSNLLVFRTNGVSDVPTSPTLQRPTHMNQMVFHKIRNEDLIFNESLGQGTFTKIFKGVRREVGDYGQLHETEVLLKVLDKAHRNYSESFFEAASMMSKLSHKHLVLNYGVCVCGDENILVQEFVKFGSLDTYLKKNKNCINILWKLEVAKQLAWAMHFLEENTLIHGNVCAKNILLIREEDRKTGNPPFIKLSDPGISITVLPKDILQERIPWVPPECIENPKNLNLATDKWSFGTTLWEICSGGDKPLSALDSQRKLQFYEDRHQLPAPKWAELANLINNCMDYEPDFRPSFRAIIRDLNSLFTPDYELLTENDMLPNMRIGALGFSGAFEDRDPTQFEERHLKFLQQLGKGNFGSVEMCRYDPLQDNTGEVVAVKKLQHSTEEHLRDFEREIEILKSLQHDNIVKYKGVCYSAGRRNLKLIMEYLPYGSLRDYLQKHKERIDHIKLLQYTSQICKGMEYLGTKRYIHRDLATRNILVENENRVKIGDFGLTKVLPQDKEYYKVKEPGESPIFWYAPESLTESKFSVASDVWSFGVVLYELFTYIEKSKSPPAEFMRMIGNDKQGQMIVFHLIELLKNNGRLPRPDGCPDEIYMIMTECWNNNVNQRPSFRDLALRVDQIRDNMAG
In short: as §1

RIPK3 = RIPK3 (Homo sapiens, UniProt Q9Y572)
Chain of RIPK3 (Q9Y572 whole entry): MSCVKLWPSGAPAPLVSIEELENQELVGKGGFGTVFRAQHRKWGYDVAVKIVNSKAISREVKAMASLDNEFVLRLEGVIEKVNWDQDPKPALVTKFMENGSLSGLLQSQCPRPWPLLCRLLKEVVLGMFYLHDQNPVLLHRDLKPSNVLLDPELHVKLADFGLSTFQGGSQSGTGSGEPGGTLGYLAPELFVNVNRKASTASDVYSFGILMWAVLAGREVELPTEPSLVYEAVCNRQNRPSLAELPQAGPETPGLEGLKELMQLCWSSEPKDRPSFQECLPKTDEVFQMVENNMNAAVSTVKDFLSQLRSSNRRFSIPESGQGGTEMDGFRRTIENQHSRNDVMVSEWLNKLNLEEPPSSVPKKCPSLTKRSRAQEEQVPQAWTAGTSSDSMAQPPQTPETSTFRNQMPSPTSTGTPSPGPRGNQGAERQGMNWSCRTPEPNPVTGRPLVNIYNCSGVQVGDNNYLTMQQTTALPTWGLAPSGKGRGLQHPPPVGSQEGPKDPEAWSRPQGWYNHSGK
In short: as §1

Chain of CSK (P41240 whole entry): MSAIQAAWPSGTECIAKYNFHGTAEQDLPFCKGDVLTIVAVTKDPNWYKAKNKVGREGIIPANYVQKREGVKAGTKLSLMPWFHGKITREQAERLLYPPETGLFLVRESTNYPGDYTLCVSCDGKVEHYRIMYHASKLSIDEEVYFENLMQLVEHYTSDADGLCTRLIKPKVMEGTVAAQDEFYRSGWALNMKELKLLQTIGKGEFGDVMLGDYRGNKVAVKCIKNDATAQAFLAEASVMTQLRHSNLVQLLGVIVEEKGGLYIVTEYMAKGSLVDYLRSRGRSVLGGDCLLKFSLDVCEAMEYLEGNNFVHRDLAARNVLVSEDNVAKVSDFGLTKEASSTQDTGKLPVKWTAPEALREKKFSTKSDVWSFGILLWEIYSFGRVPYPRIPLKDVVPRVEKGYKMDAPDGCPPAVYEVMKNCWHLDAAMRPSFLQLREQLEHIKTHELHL

Question: For `Cc1ccc(C(=O)Nc2ccc(CN3CCN(CCCN)CC3)c(C(F)(F)F)c2)cc1C#Cc1cnc2cccnn12` [c-ponatinib], which “Av. SC comp.” value (CSK; + free ponatinib) is on record?
Answer: The value was 4.5.

Question: And the “Total SC comp.” value (CSK; + free ponatinib)?
Answer: The value was 18.

Question: And the “Av. SC” value (CSK; no competitor)?
Answer: The value was 52.25.

Question: What about the “Total SC” value (CSK; no competitor) of the same compound?
Answer: The value was 209.

Question: And the “Av. SC comp.” value (GAK; + free ponatinib)?
Answer: The value was 10.25.

Question: What about the “Total SC comp.” value (GAK; + free ponatinib) of the same compound?
Answer: Its value is 41.

Question: And the “Av. SC” value (GAK; no competitor)?
Answer: The value was 22.75.

Question: And the “Total SC” value (GAK; no competitor)?
Answer: The value was 91.

Question: What about the “Av. SC comp.” value (HSPA4; + free ponatinib) of the same compound?
Answer: Its value is 1.75.

Question: And the “Total SC comp.” value (HSPA4; + free ponatinib)?
Answer: Its value is 7.

Question: What about the “Av. SC” value (HSPA4; no competitor) of the same compound?
Answer: The value was 5.5.

Question: And the “Total SC” value (HSPA4; no competitor)?
Answer: Its value is 22.

Question: And the “Av. SC comp.” value (JAK2; + free ponatinib)?
Answer: Its value is 0.

Question: And the “Total SC comp.” value (JAK2; + free ponatinib)?
Answer: The value was 0.

Question: What about the “Av. SC” value (JAK2; no competitor) of the same compound?
Answer: Its value is 2.25.

Question: What about the “Total SC” value (JAK2; no competitor) of the same compound?
Answer: Its value is 9.

Question: What about the “Av. SC comp.” value (RIPK3; + free ponatinib) of the same compound?
Answer: The value was 0.

Question: What about the “Total SC comp.” value (RIPK3; + free ponatinib) of the same compound?
Answer: The value was 0.

Question: What about the “Av. SC” value (RIPK3; no competitor) of the same compound?
Answer: Its value is 17.

Question: What about the “Total SC” value (RIPK3; no competitor) of the same compound?
Answer: Its value is 68.
